Assays:
[1] = cited from earlier work
[2] = system: protein in cell culture medium; test: Ru–protein binding in cell culture medium (gel filtration, GFAAS); assay type: in vitro ADME; details: basal medium with ~15 μM BSA, conditions B1 and B2
Method: An aliquot (50 µL) of cell culture medium from each well was passed through a separate Bio-Rad P6 centrifugal gel filtration column that was pre-saturated with PBS, according to manufacturer’s instructions. The eluants (50 ± 5 µL volume) contained protein-bound Ru fractions (>6 kDa molecular mass). The protein recovery, measured by Bradford assays, exceeded 95%. Another 50 µL sample of each medium was taken into separate tubes. Both the original and gel-filtered media samples were digested with 0.20 mL of 65% (v/v) HNO3 for 24 h. The digests were diluted with 0.75 mL of 0.10 M HCl, and the Ru content in the samples was determined by GFAAS. The percentage of protein binding was determined from the ratio of Ru content in the gel-filtered and original media samples [30, 31].

[3] = Decomposition of KP1019 in cell culture medium; assay type: in vitro ADME; details: 310 K; reported previously and confirmed in this work
HepG2 cells = test: Cellular Ru uptake by HepG2 cells (ICP-MS); assay type: cell-based, human; details: HepG2, 60 μM Ru, 24 h; B2 vs B1
Method: Human hepatoma (HepG2) cells were originally received from the American Type Culture Collection (ATCC, Cat. No. HB-8065) and cultured as described previously. This cell line was used for Tf-dependent metal uptake studies because of the high expression levels of human TfR1 [43]. For treatments, the cells were grown to confluence in 24-well plates, using Advanced DMEM (Dulbecco’s modified Eagle’s minimal essential medium, Invitrogen Cat. No. 12491-015), supplemented with L-glutamine (2.0 mM), antibiotic-antimycotic mixture (100 mg mL^−1 penicillin, 100 mg mL^−1 steptomycin and 0.25 mg mL^−1 amphotericin B) and fetal calf serum (heat-inactivated, 2% v/v). Confluent cell layers were washed with serum-free treatment medium (DMEM, Invitrogen Cat. No. 19938-025), supplemented with glutamine, antibiotic-antimycotic mixture and 1.0 mg mL^−1 AlbuMax (Gibco Cat. No. 11020-021). […] After washing, the wells were filled with the treatment medium containing metal additions (detailed in B1–B9 of Table 1). The treatment media were sterilized by filtration through 0.2 µm membrane filters, and pre-equilibrated for 24 h at 310 K and 5% CO2 prior to the addition to cells, except for sample B1 that was used immediately after preparation. All the treatments were performed in triplicate, using random well positions to avoid experimental bias.
After 24 h incubation with the treatment media (B1–B9 in Table 1), the medium from each well was collected for the determination of Ru–protein binding and BLI analyses, and the wells were washed twice with PBS (0.50 mL/well). […]
The values of metal uptake were normalized using protein content in cell lysates. For protein determination, Bradford reagent (Sigma Cat. No B6916; 98 µL) was mixed with a small aliquot (2.0 µL) of each cell lysate, and the absorbance at 600 nm was measured using a Victor V3 plate reader. […] The test and calibration samples were analyzed in triplicate. […]

[4] = system: T1, recombinant human transferrin receptor 1 (TfR1); test: BLI of Tf–TfR1 binding in dilute cell culture media after uptake experiments; details: apoTf 30 μM + KP1019 60 μM in DMEM with ~15 μM BSA, vs same medium with apoTf only
T1 construct: extracellular domain (Cyst89-Phe760), (His)6-tagged at the N-terminus; purchased Sino Biological, Beijing, China (TfR1)
Method: The effects of Ru complexes on the Tf cycle were determined by BLI using previously developed protocols. The instrument used was a single-channel BLItz analyser (ForteBio, Menlo Park, CA, USA) with a tube holder (250 µL solution volume) and Ni(II)–nta coated optical probes held at 295 ± 1 K. Measurements used the Advanced Kinetics mode. […] Solutions of metal–Tf adducts (typical final Tf concentrations 150 nM or 1.0 µM) were prepared in the binding buffer (Section 2.1). The pH 7.4 binding buffer was used for Tf binding and dissociation from the probe, and the pH 5.6 buffer (Section 2.1) was used to mimic the endosomal step of the Tf cycle. Metal–Tf solutions (A1–A9 in Table 1) were diluted 100–400-fold, cell culture media were diluted 30-fold, and human serum samples were diluted 200-fold with the binding buffer immediately before the BLI measurements. All BLI data were background corrected by using data from buffer only runs with the same TfR1-loaded optical probe. Consistent BLI results were obtained in at least two independent measurements, using different probes and different batches of Tf solutions. Calculations of the Tf–TfR1 binding constants were performed using the 1:1 binding model (BLItz software, Version 1.1, Forte-Bio 2013), which can be used as a reasonable approximation of the physiological 2:2 Tf–TfR1 binding mechanism at low Tf concentrations.
(a) BLI response curves for 1.0 µM of human Tf at 295 K in dilute cell culture media after Ru uptake experiments by HepG2 cells (Section 3.2 in the main text). Media (serum-free DMEM, containing 1.0 mg mL−1 BSA as a background protein, as well as KP1019 and/or Tf, as shown in the figure legend), were collected after the end of uptake experiments, then were diluted 30-fold with buffer (20 mM HEPES + 25 mM NaHCO3 + 140 mM NaCl, pH = 7.4) and applied to TfR1-loaded BLI probe. Designations of the steps in Tf cycle (A–D) correspond to those in Figure 1d-f, main text. Calculated KD values (1:1 binding model, BLItz software) were as […]

SMILES: [Cl-].[Cl-].[Cl-].[Cl-].[Ru+3].c1ccc2[nH][nH+]cc2c1.c1ccc2[nH]ncc2c1.c1ccc2[nH]ncc2c1 [KP1019, (IndH)[Ru^IIICl4(Ind)2]]
- Tf binding of KP1019 decomposition products in blood serum, share of total Ru ([1]; human pharmacokinetic studies): 1–2%
- Typical peak Ru concentrations in the blood of patients ([1]; patients treated with KP1019 in clinical trials): 0.1 to 0.4 mM
- Protein-bound proportion of KP1019 decomposition products in basal medium [2]: ~ 50%
- Decomposition in cell culture medium (time) [3]: within several hours
- Decrease in Ru uptake after decomposition in cell culture medium for 24 h prior to addition to cells, vs fresh solution (HepG2 cells): ~ 30 fold
- Effect on Tf–TfR1 binding in cell culture medium [4]: did not have a major effect
